Values quoted from earlier work as cited in US7196180B2, “Functionalized derivatives of hyaluronic acid, formation of hydrogels in situ using same, and methods for making and using same” (Orthogene LLC, priority 1998, dated 2007).

pKa: > 9
Structure (SMILES): NCCCCN [putrescine]
